Laboratory results: patent US8426338B2, “Chelating agents for micronutrient fertilisers” (Adelaide Research and Innovation Pty Ltd, priority 2005, dated 2013)

How the values were obtained:
[1] = tested on: Canola seedlings; settings: 1 μM ZnSO4; 24-hour uptake; FIG. 6, FIG. 7
Description: Canola seedlings (Brassica napus var. Pinnacle) were pre-germinated on filter paper moistened with deionised water. On day 6, the seedlings were transferred to complete nutrient solution and moved into the glasshouse. The nutrient solution contained Ca (3.55 mM), Mg (1.45 mM), NO3^− (8.1 mM), H2PO4^− (0.2 mM), Cl (10 μM), Na (1.1 mM), K (1.2 mM), SO4 (1.45 mM), H3BO3 (30 μM), MoO4^2− (0.2M), FeEDDHA (25 μM), Mn (10 μM), Zn (1 μM), Cu (1 μM), buffered at pH 6.0 with 2 mM MES (2-morpholinoethanesulphonic acid, 50% as potassium salt) (Kupper et al, 2000). After 14 days, the canola plants, three per pot, were transferred to pre-treatment solution for 24 hours. Pre-treatment solution contained 2 mM NaMES (pH 6.0) and 0.5 mM CaCl2. Following pre-treatment, the plants were used in the ^65Zn uptake experiments.
Pre-treated canola seedlings were transferred to uptake solutions containing 2 mM KMES (pH 6.0), 0.5 mM CaCl2 and 1 μM ZnSO4 as either the metal salt or chelated with EDTA (control) or the eight forms of PEI described above. […]
After a 24-hour uptake period, canola shoots were harvested, weighed and digested in concentrated HNO3 at 140° C. Digest solutions were transferred to radioactivity counting vials for ^65Zn measurement by gamma spectroscopy. […]

[2] = tested on: Canola; assay: Pot experiment: Zn fertiliser uptake by canola on alkaline and calcareous soils; type: in vivo, Canola (variety Pinnacle); settings: 21 days growth, chelate rates PEI 0.043, EDTA 0.37 μM/g soil, FIG. 1
Source text: A pot experiment was designed to test the availability of Zn to Canola when applied to calcareous and alkaline soils either as ZnSO4.7H2O or chelated with PEI or EDTA.
Soil samples were collected from field sites known to be Zn responsive at Streaky Bay, South Australia and Birchip, Victoria (Table 1). Topsoils from each location were collected, oven dried and passed through a 2 mm sieve. The ^65Zn labelled experimental fertilisers were mixed with 20 g of soil, which was banded between 100 g of the unfertilised bulk soil. Total nutrient application equated to (μg/g soil) P 60, N 27, applied as TGMAP, and Zn 0.2 as ZnSO4.7H2O. Chelate rates were based on the concentrations required to complex 100% of the Zn in the fertiliser solution. Rates varied depending on the stoichiometry of the Zn-ligand complexes. GEOCHEM was used to predict the degree of chelation in the EDTA fertiliser solution. […]
Two pre-germinated Canola seeds (variety Pinnacle) were transferred to each pot. […] Plant digests were analysed for ^65Zn by gamma spectroscopy and for total nutrient contents by ICP-OES.
Data for shoot dry weight, shoot nutrient concentrations and Zn fertiliser uptake were analysed by analysis of variance (ANOVA). Significance between means was determined using the Least Significant Difference (LSD) test.

[3] = tested on: canola roots; assay: Uptake of 65Zn from ice-cold solutions into canola roots (apoplast and symplast); type: in vivo; settings: 30 minutes, FIG. 4
Description: Each treatment was replicated in triplicate. After 30 minutes the canola roots were removed from the uptake solutions and rinsed with MilliQ water. Those roots used to measure symplastic absorption of Zn were transferred to ice-cold desorption solutions for 30 minutes in order to desorb apoplastically bound Zn. Desorption solutions contained 2 mM Na-MES (pH 6.0), 5 mM CaCl2 and 60 μM ZnCl2. Canola plants were separated into roots and shoots, blotted dry and weighed. Roots were transferred into radioactivity counting vials, to which 4 ml of 5M HNO3 was added. Samples were left overnight to solubilise the cell contents before the ^65Zn contents of roots were determined by gamma spectroscopy.

O=C(O)CN(CCN(CC(=O)O)CC(=O)O)CC(=O)O [EDTA, ethylenediaminetetraacetic acid]
Zn absorption and translocation to canola shoots (Zn transfer coefficient) [1]: not readily absorbed and translocated to canola shoots
Total Zn uptake by canola ([2]; Birchip Sodosol): ineffective
Total Zn uptake by canola ([2]; Streaky Bay calcareous grey sandy loam): ineffective
Uptake of Zn into the root symplast ([3]; 10 μM ZnCl2 chelated by 10 μM EDTA or 5 μM PEI): not readily absorbed
Uptake of Zn into the root apoplast ([3]; 10 μM ZnCl2 chelated by 10 μM EDTA): not readily absorbed
